Here are results for 61 molecules from a melting point compilation (Tetko et al.; mined from patent text by program, amines drawn as free bases though some values may be those of a salt).

A value given as a limit tells only on which side of the number the result lay.

Molecule `CC(NC(=O)c1sc2ccc(C(F)(F)F)cc2c1O)C(O)(c1ccccc1)c1ccccc1` (stereo unspecified) yielded a melting point of 129 to 130 °C. The molecule `CC(N1C(=O)C(=O)N(c2ccc(C#N)cc2)C1=S)C(C)(C)C` (stereo unspecified) displayed a melting point of 198 °C. Next, `COCOc1ccccc1-c1cc(-c2ccccc2C(=O)OC)c(C#N)c(NC(=O)c2cccs2)n1`: 190 to 191 °C; `CN(C)C=Nc1c(Cl)cc(N=Cc2ccc3c(c2)OCO3)cc1Cl`: 155 to 156 °C. Next, `CCOC(=O)COc1c(C)cc(C)c2c1CCC2=O`: 75 to 77 °C; `O=C(NN=Cc1cc(Cl)cc(Cl)c1O)c1cccc(OC(F)(F)F)c1`: 180 to 182 °C; `CNC(C)CN1CCc2c(c(=O)oc3cc(C)c(NC(C)=O)cc23)C1` (stereo unspecified): 187 to 188 °C.

Molecule `CN(C)CC(O)C(c1ccccc1)c1ccccc1` (stereo unspecified) registered a melting point of 72 to 73 °C. Regarding `COC(=O)c1ccc2c(=O)[nH]c(=O)n(CCCCN3CCC(OC(c4ccccc4)c4ccccc4)CC3)c2c1`, the melting point is 192 to 194 °C. `CCOC(=O)CCC(=O)c1ccc(Cl)cc1OCC(O)CNC(C)(C)C` (stereo unspecified) displayed a melting point of 70 °C. In the case of `CC(=O)N(C)c1c(I)c(NC(=O)CCCCCCCC(=O)O)c(I)c(C(=O)O)c1I`, the melting point is 205 to 208 °C.

Molecule `COc1cc2c(cc1Nc1ncc(Cl)c(Nc3ccccc3S(=O)(=O)N(C)C)n1)CCN(CCN1CCOCC1)C(=O)C2` gave a melting point of 75 to 91 °C. On to `Cc1nccn1-c1cccc(O)c1`, for which the melting point lay within 178 to 181 °C. Next, `Cc1ccc(S(=O)(=O)Cc2c(C(F)(F)F)nn(C)c2O)cc1`: 135 °C. In turn, `Cc1cc2cc(N(C(=O)Nc3ccc(F)cc3F)c3ccccc3Cl)c(=O)oc2cc1C` displayed a melting point of 212 to 214 °C. As to `COC(=O)CCNC(=O)C1CCCN1S(=O)(=O)c1ccc(Cl)c(COc2cccc3c(C)cc(C)nc23)c1Cl` (stereo unspecified), the melting point lay within 64 to 67 °C. In the case of `CC#CCOc1ccc(S(=O)(=O)N(C)C(C(=O)O)c2ccc(Cl)cc2)cc1` (stereo unspecified), the melting point fell in the range of 170 to 172 °C. Next, `CS(=O)(=O)N1CCN(c2nc(N)nc(-c3cc(Cl)ccc3Cl)n2)CC1`: 184 to 186 °C; `N#Cc1ccc(-c2ccco2)cn1`: 115 to 116 °C; `OCc1cnoc1-c1cc(Cl)cc(Cl)c1`: 104 to 105 °C. Take `CCN(CC)C(=O)C(=NO)c1c[nH]c2c1ccc1c3ccccc3[nH]c12`: the melting point lay within 268 to 269 °C. Consider `O=C(NCCCn1cnc(-c2ccccc2)c1)c1ccc(Br)cc1`, for which the melting point fell in the range of 132 to 135 °C.

For `CNc1nc(N)ncc1-c1ccc(Cl)cc1Cl`, the melting point was in the range of 189 to 190 °C. For the molecule `Cc1nnc2n1-c1ccccc1C(c1ccccc1Cl)=NC2`, the melting point was in the range of 212 to 213 °C. Molecule `CN(C)Cc1ccc2cc(-c3nnc(CSCCOc4ccccc4)o3)ccc2c1` registered a melting point of 95 to 96 °C.

Molecule `COc1ccccc1N1CCN(CCCCCS(=O)(=O)c2cccc3c(=O)c(C)c(-c4ccccc4)oc23)CC1` returned a melting point of 120 to 123 °C. As to `CC(=O)N1CCCCc2ccc(C(=O)CCC3CCN(Cc4ccccc4)CC3)cc21`, the melting point is 115 to 116 °C. In the case of `CC(C)(C)OC(=O)N1CCC2(CC1)CC(c1ccc(C#N)cc1)=NO2` it was 169 to 171 °C. Take `CC(C)/C=C1\NC(=O)CC1=O`: the melting point is 134 to 136 °C. `CCC(O)(c1ccc(O)cc1)c1ccc(F)cc1` (stereo unspecified) returned a melting point of 125 to 126 °C.

On to `CC1(C)CCC(C)(C)c2cc(C(C(N)=O)C(=O)Nc3ccc(C(=O)O)cc3)ccc21` (stereo unspecified), for which the melting point fell in the range of 112 to 113 °C. Molecule `Brc1ccc(N2CCOCC2)cc1` showed a melting point of 118 to 120 °C. For `CCCc1nc2c(C)ccnc2n1Cc1ccc2[nH]ccc2c1`, the melting point fell in the range of 110 to 112 °C. The molecule `CCCCOCCOc1ccc(-c2ccc3c(c2)C=C(C(=O)Nc2ccc([C@H](O)c4ccccn4)cc2)CCN3S(C)(=O)=O)cc1` gave a melting point of 158 to 160 °C.

As to `Cn1cncc1C(O)(c1ccc(Cl)cc1)c1cc2c3c(c1)c(-c1cccc(Cl)c1)cc(=O)n3CC2` (stereo unspecified), the melting point is 214 °C. Molecule `COc1ccc2c(c1)c(CC(=O)N(O)C1CCCCC1)c(C)n2C(=O)c1ccc(Cl)cc1` showed a melting point of 208 to 210 °C. Next, `Nc1cccc(CNC(=O)C2Cc3ccccc3N2S(=O)(=O)c2ccc(-c3cccc(C(F)(F)F)c3)cc2)c1` (stereo unspecified): 82 °C; `O=C(Nc1ccc2nc(S)[nH]c2c1)C(=O)N1CCC(Cc2ccccc2)CC1`: 277 to 281 °C. Turning to `Cc1oc(-c2ccc(Cl)cc2)cc1C(=O)Nc1cc(Cl)ccc1-c1nnn[nH]1`, the melting point fell in the range of 247 to 255 °C. Next, `COCCOc1ccccc1OS(=O)(=O)NC(=O)Nc1nc(OC)cc(OC)n1`: 106 to 108 °C. `O=Cc1ccc(OCc2ccccc2F)c(Cc2ccccc2F)c1` displayed a melting point of 71 °C.

The molecule `O=C(N1CCCC1)C(CCN1CCC(O)(c2ccccc2)CC1)(c1ccccc1)c1ccccc1` returned a melting point of 188 °C. With `COC1CCN(c2cc(NC(=O)OC(C)(C)C)c([N+](=O)[O-])cc2C#Cc2ccccc2)CC1`, the melting point was in the range of 147 to 150 °C.

`COc1ccc(CN2Cc3cncn3C(c3ccc(Br)cc3)C2=O)cc1` (stereo unspecified) displayed a melting point of 123 to 124 °C.

The molecule `O=C(O)c1csc(Nc2ccc(Cl)c(C(F)(F)F)c2)n1` returned a melting point of 254 to 256 °C. Turning to `COC(=O)c1ccc(/C=C(\C)c2ccc3c(c2)C(C)(C)CCN3C(C)=O)cc1`, the melting point is 141 to 142 °C. On to `COC(=O)CCc1conc1-c1ccc(F)c(Br)c1`, for which the melting point was in the range of 57 to 58 °C. `CS(=O)(=O)c1ccc(/C(=C2\N=C(c3ccccc3)OC2=O)c2ccc(Cl)cc2)cc1`: the melting point worked out at 226 °C. With `CCCc1nc2c(N)nc3cc(C)ccc3c2o1`, the melting point was in the range of 188 to 189 °C. Next, `CCC1C(=O)N(CC)CCc2cc(Nc3ncc(Cl)c(N[C@@H]4CCCC[C@H]4NS(C)(=O)=O)n3)c(OC)cc21` (stereo partly specified): 126 to 127 °C; `OCC1C=CC(n2cnc3c(O)ncnc32)O1` (stereo unspecified): over 310 °C. Next, `N#CC1CN(C(=O)[C@H](NC(=O)c2c[nH]c3ncc(-c4ccc(C(F)(F)F)cc4)nc23)C2CC2)C1`: 207 to 209 °C; `Nc1ncnc2c1c(CCCO)nn2Cc1oc2ccccc2c(=O)c1-c1ccccc1`: 182 to 184 °C.

Consider `Cc1c(OCc2ccccc2)ccc2c(O)c(C(=O)Nc3cccc(Br)c3)c(=O)oc12`, for which the melting point lay within 229 to 231 °C.

As for `CCOC(=O)c1ccsc1NC(=O)NCCN1CCN(c2ccc(OC)cc2)CC1`, the melting point was 103 to 106 °C. In the case of `CON=C(N)Nc1nccc(C)n1` it was 152 °C; in that of `Cc1noc(C)c1Cn1nnnc1-c1cccc(Cl)c1Cl`, 176 to 178 °C. Take `O=C(O)COc1ccc(C2=CC(=O)CC(c3ccccc3F)C2)c(Cl)c1Cl` (stereo unspecified): the melting point fell in the range of 187 to 190 °C. In turn, `CNc1c(C(=O)OC)cccc1[N+](=O)[O-]` yielded a melting point of 138 to 140 °C. Molecule `CCn1cc(-c2ccc(O)cc2)nc1S` displayed a melting point of 252 °C. Molecule `O=S(=O)(c1ccccc1)n1c2ccc(Br)cc2c2ccc(Cl)nc21` displayed a melting point of 204 to 206 °C.
